Structures can show the parent of a compound that is named as a salt.
Assays:
Experiment in all cases: Radioligand binding
[1] = target: T1, 5-HT1B (Rattus norvegicus, UniProt P28564); details: 100 μM
T1 construct: purchased Eurofins CEREP

[2] = target: T2, 5-HT3 (Homo sapiens, UniProt P46098); details: 100 μM
T2 construct: purchased Eurofins CEREP

[3] = target: T3, 5-HT5a (Homo sapiens, UniProt P47898); details: 100 μM
T3 construct: purchased Eurofins CEREP

[4] = target: T4, 5-HT6 (Homo sapiens, UniProt P50406); details: 100 μM
T4 construct: purchased Eurofins CEREP

[5] = target: T5, A1 (Homo sapiens, UniProt P30542); details: 100 μM
T5 construct: purchased Eurofins CEREP

[6] = target: T6, A2A (Homo sapiens, UniProt P29274); details: 100 μM
T6 construct: purchased Eurofins CEREP

[7] = target: T7, A3 (Homo sapiens, UniProt P0DMS8); details: 100 μM
T7 construct: purchased Eurofins CEREP

[8] = target: T8, AT1 (Homo sapiens, UniProt P30556); details: 100 μM
T8 construct: purchased Eurofins CEREP

[9] = target: T9, AT2 (Homo sapiens, UniProt P50052); details: 100 μM
T9 construct: purchased Eurofins CEREP

[10] = target: T10, CCK1 (CCKA) (Homo sapiens, UniProt P32238); details: 100 μM
T10 construct: purchased Eurofins CEREP

[11] = target: T11, CGRP (Homo sapiens, UniProt O60894+Q16602); details: 100 μM
T11 construct: purchased Eurofins CEREP

[12] = target: T12, D1 (Homo sapiens, UniProt P21728); details: 100 μM
T12 construct: purchased Eurofins CEREP

[13] = target: T13, D5 (Homo sapiens, UniProt P21918); details: 100 μM
T13 construct: purchased Eurofins CEREP

[14] = target: T14, EP2 (Homo sapiens, UniProt P43116); details: 100 μM
T14 construct: purchased Eurofins CEREP

[15] = target: T15, ETB (Homo sapiens, UniProt P24530); details: 100 μM
T15 construct: purchased Eurofins CEREP

[16] = target: T16, GAL1 (Homo sapiens, UniProt P47211); details: 100 μM
T16 construct: purchased Eurofins CEREP

[17] = target: T17, GR (Homo sapiens, UniProt P04150); details: 100 μM
T17 construct: purchased Eurofins CEREP

[18] = target: T18, H1 (Homo sapiens, UniProt P35367); details: 100 μM
T18 construct: purchased Eurofins CEREP

[19] = target: T19, H2 (Homo sapiens, UniProt P25021); details: 100 μM
T19 construct: purchased Eurofins CEREP

[20] = target: T20, IP (PGI2) (Homo sapiens, UniProt P43119); details: 100 μM
T20 construct: purchased Eurofins CEREP

[21] = target: T21, M2 (Homo sapiens, UniProt P08172); details: 100 μM
T21 construct: purchased Eurofins CEREP

[22] = target: T22, MC4 (Homo sapiens, UniProt P32245); details: 100 μM
T22 construct: purchased Eurofins CEREP

[23] = target: T23, MT1 (ML1A) (Homo sapiens, UniProt P48039); details: 100 μM
T23 construct: purchased Eurofins CEREP

[24] = target: T24, NK1 (Homo sapiens, UniProt P25103); details: 100 μM
T24 construct: purchased Eurofins CEREP

[25] = target: T25, NK2 (Homo sapiens, UniProt P21452); details: 100 μM
T25 construct: purchased Eurofins CEREP

[26] = target: T26, NK3 (Homo sapiens, UniProt P29371); details: 100 μM
T26 construct: purchased Eurofins CEREP

[27] = target: T27, NOP (ORL1) (Homo sapiens, UniProt P41146); details: 100 μM
T27 construct: purchased Eurofins CEREP

[28] = system: PDGF; details: 100 μM
[29] = target: T28, PPARγ (Homo sapiens, UniProt P37231); details: 100 μM
T28 construct: purchased Eurofins CEREP

[30] = system: TNF-α; details: 100 μM
[31] = target: T29, VPAC1 (VIP1) (Homo sapiens, UniProt P32241); details: 100 μM
T29 construct: purchased Eurofins CEREP

[32] = target: T30, Y1 (Homo sapiens, UniProt P25929); details: 100 μM
T30 construct: purchased Eurofins CEREP

[33] = target: T31, Y2 (Homo sapiens, UniProt P49146); details: 100 μM
T31 construct: purchased Eurofins CEREP

[34] = target: T32, norepinephrine transporter (Homo sapiens, UniProt P23975); details: 100 μM
T32 construct: purchased Eurofins CEREP

[35] = system: sst (non-selective); details: 100 μM
[36] = target: T33, β1 (Homo sapiens, UniProt P08588); details: 100 μM
T33 construct: purchased Eurofins CEREP

[37] = target: T34, β2 (Homo sapiens, UniProt P07550); details: 100 μM
T34 construct: purchased Eurofins CEREP

[38] = target: T35, μ (MOP) (Homo sapiens, UniProt P35372); details: 100 μM
T35 construct: purchased Eurofins CEREP

[39] = target: T36, Sigma 1 (Homo sapiens, UniProt Q99720)
T36 construct: purchased Eurofins CEREP

[40] = target: T37, Sigma 2 (Homo sapiens, UniProt Q5BJF2)
T37 construct: purchased Eurofins CEREP

[41] = read-out: % inhibition of specific control binding
[42] = read-out: % of control specific binding

T37 sequence (Q5BJF2 whole entry): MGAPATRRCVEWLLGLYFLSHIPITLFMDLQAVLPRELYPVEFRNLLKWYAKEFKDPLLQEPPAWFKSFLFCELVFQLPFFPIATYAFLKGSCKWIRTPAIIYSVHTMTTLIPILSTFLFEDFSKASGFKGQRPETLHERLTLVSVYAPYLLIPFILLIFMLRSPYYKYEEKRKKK
T36 sequence (Q99720 whole entry): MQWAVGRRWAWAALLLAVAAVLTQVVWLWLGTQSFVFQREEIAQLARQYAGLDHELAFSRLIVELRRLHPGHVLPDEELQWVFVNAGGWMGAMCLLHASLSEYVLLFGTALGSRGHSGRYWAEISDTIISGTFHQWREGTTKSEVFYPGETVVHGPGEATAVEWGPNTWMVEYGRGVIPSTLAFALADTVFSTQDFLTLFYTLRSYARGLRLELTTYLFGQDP
T12 sequence (P21728 whole entry): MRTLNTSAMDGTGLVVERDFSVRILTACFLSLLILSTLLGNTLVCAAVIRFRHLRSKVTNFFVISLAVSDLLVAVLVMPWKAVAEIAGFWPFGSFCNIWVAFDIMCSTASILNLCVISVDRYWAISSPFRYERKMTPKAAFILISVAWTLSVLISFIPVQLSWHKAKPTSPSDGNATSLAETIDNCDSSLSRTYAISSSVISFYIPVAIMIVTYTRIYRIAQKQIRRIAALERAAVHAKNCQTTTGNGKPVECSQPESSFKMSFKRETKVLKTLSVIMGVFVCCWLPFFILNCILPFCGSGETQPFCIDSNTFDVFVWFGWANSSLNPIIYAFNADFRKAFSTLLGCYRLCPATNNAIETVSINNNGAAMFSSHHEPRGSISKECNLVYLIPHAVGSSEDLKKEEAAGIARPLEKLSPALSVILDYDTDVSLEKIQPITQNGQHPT
T1 sequence (P28564 whole entry): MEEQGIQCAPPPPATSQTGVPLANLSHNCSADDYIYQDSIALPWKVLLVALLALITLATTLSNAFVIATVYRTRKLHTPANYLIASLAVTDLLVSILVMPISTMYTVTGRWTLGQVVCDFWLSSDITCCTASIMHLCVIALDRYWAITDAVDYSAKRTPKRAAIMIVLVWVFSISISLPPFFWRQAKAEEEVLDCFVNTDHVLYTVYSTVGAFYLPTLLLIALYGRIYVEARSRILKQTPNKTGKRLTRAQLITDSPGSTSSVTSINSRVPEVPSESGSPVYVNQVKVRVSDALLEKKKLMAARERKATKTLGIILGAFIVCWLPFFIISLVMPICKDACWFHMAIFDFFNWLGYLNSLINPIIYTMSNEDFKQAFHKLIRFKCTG
T30 sequence (P25929 whole entry): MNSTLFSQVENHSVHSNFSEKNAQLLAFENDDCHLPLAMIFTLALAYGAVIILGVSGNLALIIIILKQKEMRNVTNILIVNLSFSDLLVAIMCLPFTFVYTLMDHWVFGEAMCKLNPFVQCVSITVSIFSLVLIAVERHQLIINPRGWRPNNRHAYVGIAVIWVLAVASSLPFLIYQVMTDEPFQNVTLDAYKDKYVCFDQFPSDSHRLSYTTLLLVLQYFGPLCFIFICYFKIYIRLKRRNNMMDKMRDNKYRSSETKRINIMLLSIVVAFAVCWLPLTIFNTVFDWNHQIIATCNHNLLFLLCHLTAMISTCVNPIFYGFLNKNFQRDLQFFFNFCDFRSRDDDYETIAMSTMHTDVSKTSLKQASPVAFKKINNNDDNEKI
T28 sequence (P37231 whole entry): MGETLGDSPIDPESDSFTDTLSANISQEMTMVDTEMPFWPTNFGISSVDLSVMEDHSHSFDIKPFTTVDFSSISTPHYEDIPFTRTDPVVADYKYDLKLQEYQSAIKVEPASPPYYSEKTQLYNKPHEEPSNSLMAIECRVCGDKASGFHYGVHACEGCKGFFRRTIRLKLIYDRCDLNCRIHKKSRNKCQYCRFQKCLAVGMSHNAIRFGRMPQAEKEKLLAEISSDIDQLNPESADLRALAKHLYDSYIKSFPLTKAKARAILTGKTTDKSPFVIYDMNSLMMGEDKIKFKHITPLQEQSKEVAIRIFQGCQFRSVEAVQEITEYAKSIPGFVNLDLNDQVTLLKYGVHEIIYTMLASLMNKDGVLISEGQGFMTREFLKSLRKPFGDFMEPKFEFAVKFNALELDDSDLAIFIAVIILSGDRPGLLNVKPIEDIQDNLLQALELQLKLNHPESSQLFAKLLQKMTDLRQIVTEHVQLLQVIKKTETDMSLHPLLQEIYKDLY
T7 sequence (P0DMS8 whole entry): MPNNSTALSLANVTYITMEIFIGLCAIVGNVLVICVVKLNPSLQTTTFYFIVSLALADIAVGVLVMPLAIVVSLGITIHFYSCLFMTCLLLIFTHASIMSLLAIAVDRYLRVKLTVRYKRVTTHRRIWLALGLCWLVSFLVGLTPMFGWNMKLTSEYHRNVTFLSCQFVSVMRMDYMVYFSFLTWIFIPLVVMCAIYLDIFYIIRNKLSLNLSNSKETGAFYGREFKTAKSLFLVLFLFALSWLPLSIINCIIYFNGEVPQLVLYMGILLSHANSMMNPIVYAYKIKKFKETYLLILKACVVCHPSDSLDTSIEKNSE
T3 sequence (P47898 whole entry): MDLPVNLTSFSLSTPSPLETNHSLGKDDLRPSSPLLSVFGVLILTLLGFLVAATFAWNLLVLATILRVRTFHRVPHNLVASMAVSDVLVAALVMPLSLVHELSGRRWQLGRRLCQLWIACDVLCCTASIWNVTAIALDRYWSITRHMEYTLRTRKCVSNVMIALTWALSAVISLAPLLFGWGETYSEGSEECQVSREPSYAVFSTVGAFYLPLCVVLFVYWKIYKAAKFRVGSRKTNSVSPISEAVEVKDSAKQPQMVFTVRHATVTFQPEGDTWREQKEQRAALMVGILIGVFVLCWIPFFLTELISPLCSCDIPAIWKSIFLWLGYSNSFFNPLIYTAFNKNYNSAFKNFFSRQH
T24 sequence (P25103 whole entry): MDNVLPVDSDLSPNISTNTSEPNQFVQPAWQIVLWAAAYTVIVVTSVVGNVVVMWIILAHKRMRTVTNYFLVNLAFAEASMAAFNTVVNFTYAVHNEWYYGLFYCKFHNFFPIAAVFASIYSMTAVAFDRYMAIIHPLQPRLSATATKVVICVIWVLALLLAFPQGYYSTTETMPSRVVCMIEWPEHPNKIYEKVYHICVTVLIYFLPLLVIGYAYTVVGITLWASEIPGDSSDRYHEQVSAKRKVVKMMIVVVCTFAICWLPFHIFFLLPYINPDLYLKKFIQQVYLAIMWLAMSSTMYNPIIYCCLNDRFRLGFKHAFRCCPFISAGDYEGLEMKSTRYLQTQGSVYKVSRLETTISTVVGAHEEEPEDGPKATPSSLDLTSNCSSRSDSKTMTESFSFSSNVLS
T26 sequence (P29371 whole entry): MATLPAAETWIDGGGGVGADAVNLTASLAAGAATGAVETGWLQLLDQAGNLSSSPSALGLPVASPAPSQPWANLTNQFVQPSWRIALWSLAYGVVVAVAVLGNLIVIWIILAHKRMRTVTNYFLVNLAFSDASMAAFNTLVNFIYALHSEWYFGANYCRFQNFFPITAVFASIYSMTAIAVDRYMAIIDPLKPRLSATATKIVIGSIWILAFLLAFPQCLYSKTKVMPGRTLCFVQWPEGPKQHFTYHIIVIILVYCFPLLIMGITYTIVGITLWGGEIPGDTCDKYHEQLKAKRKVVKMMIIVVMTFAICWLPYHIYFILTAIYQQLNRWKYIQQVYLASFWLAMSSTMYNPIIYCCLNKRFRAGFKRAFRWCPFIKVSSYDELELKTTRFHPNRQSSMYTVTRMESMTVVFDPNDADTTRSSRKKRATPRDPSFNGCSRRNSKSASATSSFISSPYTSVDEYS
T6 sequence (P29274 whole entry): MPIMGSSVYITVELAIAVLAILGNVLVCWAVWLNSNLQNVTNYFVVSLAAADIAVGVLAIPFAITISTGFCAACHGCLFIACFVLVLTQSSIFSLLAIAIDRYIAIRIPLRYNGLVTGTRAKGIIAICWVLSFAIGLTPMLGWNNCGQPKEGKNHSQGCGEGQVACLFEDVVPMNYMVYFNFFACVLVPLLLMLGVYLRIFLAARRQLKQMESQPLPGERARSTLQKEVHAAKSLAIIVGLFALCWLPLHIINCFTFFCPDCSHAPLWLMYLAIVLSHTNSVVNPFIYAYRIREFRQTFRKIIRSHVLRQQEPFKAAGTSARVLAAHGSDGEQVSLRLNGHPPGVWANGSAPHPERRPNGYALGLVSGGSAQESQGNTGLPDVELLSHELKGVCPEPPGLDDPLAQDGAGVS
T8 sequence (P30556 whole entry): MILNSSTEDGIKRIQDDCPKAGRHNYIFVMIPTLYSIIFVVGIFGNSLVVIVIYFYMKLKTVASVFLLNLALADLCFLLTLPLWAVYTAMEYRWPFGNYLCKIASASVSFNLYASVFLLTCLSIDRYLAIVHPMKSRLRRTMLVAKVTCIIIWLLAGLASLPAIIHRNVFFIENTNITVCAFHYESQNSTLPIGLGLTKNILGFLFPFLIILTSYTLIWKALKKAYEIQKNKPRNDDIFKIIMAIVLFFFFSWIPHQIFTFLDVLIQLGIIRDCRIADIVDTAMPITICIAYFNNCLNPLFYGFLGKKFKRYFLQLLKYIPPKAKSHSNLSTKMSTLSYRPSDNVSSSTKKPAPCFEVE
T20 sequence (P43119 whole entry): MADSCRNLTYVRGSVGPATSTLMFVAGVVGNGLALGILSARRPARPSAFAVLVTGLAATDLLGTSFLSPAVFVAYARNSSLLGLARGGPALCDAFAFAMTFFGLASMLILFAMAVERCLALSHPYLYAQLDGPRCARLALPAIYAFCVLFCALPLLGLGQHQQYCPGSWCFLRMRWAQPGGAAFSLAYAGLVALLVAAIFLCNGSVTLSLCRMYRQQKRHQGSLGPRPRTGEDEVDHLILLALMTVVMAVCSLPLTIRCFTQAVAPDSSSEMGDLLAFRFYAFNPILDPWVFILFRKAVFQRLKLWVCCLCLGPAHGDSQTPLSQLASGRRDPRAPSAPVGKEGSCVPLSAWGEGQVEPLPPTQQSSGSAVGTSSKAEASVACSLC

## CCC(CO)NCCOc1c(C)cccc1Cl (stereo not drawn) [Compound 4, R,S-2-((2-(2-chloro-6-methylphenoxy)ethyl)amino)butan-1-ol]
[1]
  % of control specific binding: 79.7%
[2]
  % of control specific binding: 76.2%
[3]
  % of control specific binding: 52.8%
[4]
  % of control specific binding: 101.6%
[5]
  % of control specific binding: 124.5%
[6]
  % of control specific binding: 71.7%
[7]
  % of control specific binding: 115.1%
[8]
  % of control specific binding: 131.2%
[9]
  % of control specific binding: 108.2%
[10]
  % of control specific binding: 99.8%
[11]
  % of control specific binding: 119.0%
[12]
  % of control specific binding: 58.6%
[13]
  % of control specific binding: 54.4%
[14]
  % of control specific binding: 75.4%
[15]
  % of control specific binding: 134.4%
[16]
  % of control specific binding: 123.5%
[17]
  % of control specific binding: 111.7%
[18]
  % of control specific binding: 58.9%
[19]
  % of control specific binding: 90.3%
[20]
  % of control specific binding: 97.2%
[21]
  % of control specific binding: 58.4%
[22]
  % of control specific binding: 92.0%
[23]
  % of control specific binding: 55.1%
[24]
  % of control specific binding: 82.1%
[25]
  % of control specific binding: 88.7%
[26]
  % of control specific binding: 91.8%
[27]
  % of control specific binding: 95.5%
[28]
  % of control specific binding: 127.9%
[29]
  % of control specific binding: 92.3%
[30]
  % of control specific binding: 96.5%
[31]
  % of control specific binding: 117.9%
[32]
  % of control specific binding: 122.3%
[33]
  % of control specific binding: 126.5%
[34]
  % of control specific binding: 55.0%
[35]
  % of control specific binding: 75.5%
[36]
  % of control specific binding: 64.4%
[37]
  % of control specific binding: 85.1%
[38]
  % of control specific binding: 50.1%

## CCC(CO)NCCOc1c(C)cccc1Cl (stereo not drawn) [KM-408, R,S-2-((2-(2-chloro-6-methylphenoxy)ethyl)amino)butan-1-ol hydrochloride]
[39]; [41]
  inhibition at 10 µM: 95%
[39]; [42]
  remaining activity at 10 µM: 95%
[40]; [41]
  inhibition at 10 µM: 94.8%
[40]; [42]
  remaining activity at 10 µM: 94.8%

— publication PMC9889419 (Pharmacological Reports, 2022)
